Data set [1] is described as follows: physchem. To be noted: octanol/water, pH 7.4.
Description: Octanol-water distribution coefficient, log D at pH 7.4 at 25 degC by potentiometric titration method
Data set [2] can be described thus: physchem.
Description: Dissociation constant, pKa of the compound
A short description of data set [3]: Octanol-water distribution coefficient, log D by HPLC. Type of data set: physicochemical.

Our source for the logD and pKa values is ChEMBL document CHEMBL1139287, “Spiro(imidazo[1,2-a]pyrano[2,3-c]pyridine-9-indenes) as inhibitors of gastric acid secretion” (Bioorg Med Chem, 2009).

As usually defined, the logD is lipophilicity at a set pH, counting ionised and neutral species. Read a low logD as a more hydrophilic compound. Usually pKa stands for the pH at which an ionisable group is half protonated. Low readings indicate a stronger acid or weaker base, high ones a weaker acid or stronger base. In turn, `CNC(=O)c1cn2c(C)c(C)nc2c2c1CCC1(CCc3ccccc31)O2` (stereo not given) displayed a log distribution coefficient (logD) in data set [1] of 3.29. This molecule also registered a pKa in data set [2] of 6.8.
For `Cc1nc2c3c(c(C(=O)NC4CC4)cn2c1C)CCC1(CCc2ccccc21)O3` (stereo not given), in that order: 3.64 and 6.76.
`Cc1nc2c3c(c(C(=O)N4CCC4)cn2c1C)CCC1(CCc2ccccc21)O3` (stereo not given) yielded a pH-dependent lipophilicity (logD) in data set [1] of 3.19. Moreover, in data set [2], the pKa amounted to 6.81.
Taken in the same sequence, the figures for `Cc1nc2c3c(c(C(=O)N4CCCC4)cn2c1C)CCC1(CCc2ccccc21)O3` (stereo not given) were 3.36 and 6.88.
Taken in the same sequence, the figures for `Cc1nc2c3c(c(C(=O)N4CCCCC4)cn2c1C)CCC1(CCc2ccccc21)O3` (stereo not given) were 3.87 and 6.81.
For `Cc1cccc2c1CCC21CCc2c(C(=O)N(C)C)cn3c(C)c(C)nc3c2O1` (stereo not given), in that order: 3.42 and 6.87.
With `Cc1nc2c3c(c(C(=O)N(C)C)cn2c1C)CCC1(CCc2cc(F)ccc21)O3` (stereo not given), the pH-dependent lipophilicity (logD) in data set [3] was 3.
Consider `Cc1nc2c3c(c(C(=O)N4CCOCC4)cn2c1C)CCC1(CCc2ccccc21)O3` (stereo not given), for which the logD in data set [1] amounted to 2.85. Also, the pKa in data set [2] was 6.74.
In the case of `Cc1nc2c3c(c(C(=O)N(C)C)cn2c1C)CCC1(Cc2ccccc2C1)O3`, the pH-dependent lipophilicity (logD) in data set [3] was found to be 2.9. This molecule showed a pKa in data set [2] of 6.84.
In the case of `Cc1nc2c3c(c(C(=O)N4CC(F)(F)C4)cn2c1C)CCC1(CCc2ccccc21)O3` (stereo not given), the pH-dependent lipophilicity (logD) in data set [1] stood at 3.57. In addition, in data set [2], the pKa was 6.55.
The molecule `Cc1nc2c3c(c(C(=O)Nc4ccccc4)cn2c1C)CCC1(CCc2ccccc21)O3` (stereo not given) came in with a log distribution coefficient (logD) in data set [1] of 4.7. Moreover, in data set [2], the pKa was determined as 6.76.
`CON(C)C(=O)c1cn2c(C)c(C)nc2c2c1CCC1(CCc3ccccc31)O2` (stereo not given) came in with a pH-dependent lipophilicity (logD) in data set [1] of 3.15. This molecule had a pKa in data set [2] of 6.63.
In data set [1], `Cc1nc2c3c(c(C(=O)N(C)C)cn2c1C)CCC1(CCc2ccccc21)O3` (racemic) came in with a pH-dependent lipophilicity (logD) of 2.91. Moreover, the pKa in data set [2] was 6.84.
